Literature values, collected in patent US20100120907A1, “DERIVATIVES OF AMYRIS ALCOHOLS AND EUDESMOL FOR TREATING COLD SORES AND HERPES” (priority 2007, published 2010).

What was measured:
[1] = tested on: cold sores; conditions: topical cream
[2] = tested on: neurogenic inflammation; conditions: following electrical stimulation of rat trigeminal ganglion
[3] = biological target: omega-agatoxin IVA-sensitive (P/Q-type) Ca^2+ channel (Rattus norvegicus, UniProt P54282)
[4] = tested on: Na^+, K(+)-ATPase; conditions: among the various kinds of phosphatases examined
[5] = biological target: nicotinic ACh receptor channel (Homo sapiens, UniProt P02708+P11230+Q04844+Q07001)
[6] = tested on: angiogenesis; conditions: mice
[7] = tested on: porcine brain microvascular endothelial cells; conditions: 50-100 microM
[8] = tested on: human umbilical vein endothelial cells (HUVEC)
[9] = tested on: PC-12 cells
[10] = tested on: extracellular signal-regulated kinase (ERK) ½; conditions: 100 microM
[11] = tested on: ornithine decarboxylase (ODC); conditions: mice
[12] = tested on: skin papillomas; conditions: DMBA-initiated, TPA-promoted, mice

Chain of nicotinic ACh receptor channel (P02708 21-457): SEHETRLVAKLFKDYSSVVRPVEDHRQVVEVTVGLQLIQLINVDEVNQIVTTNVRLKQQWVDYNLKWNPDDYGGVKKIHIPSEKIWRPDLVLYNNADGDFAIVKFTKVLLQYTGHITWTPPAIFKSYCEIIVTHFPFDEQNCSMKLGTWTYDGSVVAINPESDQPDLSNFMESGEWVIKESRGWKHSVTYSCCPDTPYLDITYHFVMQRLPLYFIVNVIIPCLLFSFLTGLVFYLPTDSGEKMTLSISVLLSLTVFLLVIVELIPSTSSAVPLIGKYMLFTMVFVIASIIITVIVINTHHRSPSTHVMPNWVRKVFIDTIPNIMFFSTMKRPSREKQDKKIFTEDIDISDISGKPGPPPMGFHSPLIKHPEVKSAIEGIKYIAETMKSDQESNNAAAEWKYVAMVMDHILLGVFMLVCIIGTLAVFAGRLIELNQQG
Chain of nicotinic ACh receptor channel (P11230 24-501): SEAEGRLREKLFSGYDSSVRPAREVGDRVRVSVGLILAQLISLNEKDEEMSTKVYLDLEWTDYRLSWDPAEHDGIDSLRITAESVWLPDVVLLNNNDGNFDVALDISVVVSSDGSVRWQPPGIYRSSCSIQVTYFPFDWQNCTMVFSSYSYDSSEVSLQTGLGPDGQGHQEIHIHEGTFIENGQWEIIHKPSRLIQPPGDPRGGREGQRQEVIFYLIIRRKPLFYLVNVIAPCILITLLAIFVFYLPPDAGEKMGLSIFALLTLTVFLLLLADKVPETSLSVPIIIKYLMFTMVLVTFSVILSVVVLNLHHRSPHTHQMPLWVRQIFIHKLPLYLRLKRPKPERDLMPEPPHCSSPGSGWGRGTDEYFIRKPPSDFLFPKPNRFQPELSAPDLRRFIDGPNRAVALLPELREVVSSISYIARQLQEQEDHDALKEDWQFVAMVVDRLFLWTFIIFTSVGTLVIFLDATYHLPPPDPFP
Chain of nicotinic ACh receptor channel (Q07001 22-517): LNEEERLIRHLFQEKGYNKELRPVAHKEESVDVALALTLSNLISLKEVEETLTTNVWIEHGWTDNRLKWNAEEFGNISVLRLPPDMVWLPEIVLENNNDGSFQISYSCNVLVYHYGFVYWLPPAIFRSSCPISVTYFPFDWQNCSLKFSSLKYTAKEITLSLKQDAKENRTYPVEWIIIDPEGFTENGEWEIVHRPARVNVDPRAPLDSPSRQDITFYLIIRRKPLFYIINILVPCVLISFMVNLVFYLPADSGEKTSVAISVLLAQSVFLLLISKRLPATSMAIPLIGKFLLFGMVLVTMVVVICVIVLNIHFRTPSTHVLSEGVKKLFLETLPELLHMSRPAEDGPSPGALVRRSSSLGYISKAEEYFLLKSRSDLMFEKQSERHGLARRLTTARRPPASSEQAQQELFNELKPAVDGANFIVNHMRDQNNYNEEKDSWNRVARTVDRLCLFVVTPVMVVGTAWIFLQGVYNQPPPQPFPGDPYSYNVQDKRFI
Chain of nicotinic ACh receptor channel (Q04844 21-493): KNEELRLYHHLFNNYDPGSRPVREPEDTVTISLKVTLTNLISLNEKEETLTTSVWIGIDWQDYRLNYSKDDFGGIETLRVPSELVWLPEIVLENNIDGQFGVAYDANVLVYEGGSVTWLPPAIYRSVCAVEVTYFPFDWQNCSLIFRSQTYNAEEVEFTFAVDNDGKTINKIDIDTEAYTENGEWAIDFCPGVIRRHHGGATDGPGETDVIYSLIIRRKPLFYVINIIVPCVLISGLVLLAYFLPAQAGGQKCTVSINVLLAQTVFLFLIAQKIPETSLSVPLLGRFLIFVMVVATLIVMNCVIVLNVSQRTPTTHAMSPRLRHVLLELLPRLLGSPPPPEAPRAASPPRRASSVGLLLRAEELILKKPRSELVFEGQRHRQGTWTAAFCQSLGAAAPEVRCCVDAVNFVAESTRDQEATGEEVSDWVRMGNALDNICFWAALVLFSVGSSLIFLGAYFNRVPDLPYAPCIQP
Chain of omega-agatoxin IVA-sensitive (P/Q-type) Ca^2+ channel (P54282 whole entry): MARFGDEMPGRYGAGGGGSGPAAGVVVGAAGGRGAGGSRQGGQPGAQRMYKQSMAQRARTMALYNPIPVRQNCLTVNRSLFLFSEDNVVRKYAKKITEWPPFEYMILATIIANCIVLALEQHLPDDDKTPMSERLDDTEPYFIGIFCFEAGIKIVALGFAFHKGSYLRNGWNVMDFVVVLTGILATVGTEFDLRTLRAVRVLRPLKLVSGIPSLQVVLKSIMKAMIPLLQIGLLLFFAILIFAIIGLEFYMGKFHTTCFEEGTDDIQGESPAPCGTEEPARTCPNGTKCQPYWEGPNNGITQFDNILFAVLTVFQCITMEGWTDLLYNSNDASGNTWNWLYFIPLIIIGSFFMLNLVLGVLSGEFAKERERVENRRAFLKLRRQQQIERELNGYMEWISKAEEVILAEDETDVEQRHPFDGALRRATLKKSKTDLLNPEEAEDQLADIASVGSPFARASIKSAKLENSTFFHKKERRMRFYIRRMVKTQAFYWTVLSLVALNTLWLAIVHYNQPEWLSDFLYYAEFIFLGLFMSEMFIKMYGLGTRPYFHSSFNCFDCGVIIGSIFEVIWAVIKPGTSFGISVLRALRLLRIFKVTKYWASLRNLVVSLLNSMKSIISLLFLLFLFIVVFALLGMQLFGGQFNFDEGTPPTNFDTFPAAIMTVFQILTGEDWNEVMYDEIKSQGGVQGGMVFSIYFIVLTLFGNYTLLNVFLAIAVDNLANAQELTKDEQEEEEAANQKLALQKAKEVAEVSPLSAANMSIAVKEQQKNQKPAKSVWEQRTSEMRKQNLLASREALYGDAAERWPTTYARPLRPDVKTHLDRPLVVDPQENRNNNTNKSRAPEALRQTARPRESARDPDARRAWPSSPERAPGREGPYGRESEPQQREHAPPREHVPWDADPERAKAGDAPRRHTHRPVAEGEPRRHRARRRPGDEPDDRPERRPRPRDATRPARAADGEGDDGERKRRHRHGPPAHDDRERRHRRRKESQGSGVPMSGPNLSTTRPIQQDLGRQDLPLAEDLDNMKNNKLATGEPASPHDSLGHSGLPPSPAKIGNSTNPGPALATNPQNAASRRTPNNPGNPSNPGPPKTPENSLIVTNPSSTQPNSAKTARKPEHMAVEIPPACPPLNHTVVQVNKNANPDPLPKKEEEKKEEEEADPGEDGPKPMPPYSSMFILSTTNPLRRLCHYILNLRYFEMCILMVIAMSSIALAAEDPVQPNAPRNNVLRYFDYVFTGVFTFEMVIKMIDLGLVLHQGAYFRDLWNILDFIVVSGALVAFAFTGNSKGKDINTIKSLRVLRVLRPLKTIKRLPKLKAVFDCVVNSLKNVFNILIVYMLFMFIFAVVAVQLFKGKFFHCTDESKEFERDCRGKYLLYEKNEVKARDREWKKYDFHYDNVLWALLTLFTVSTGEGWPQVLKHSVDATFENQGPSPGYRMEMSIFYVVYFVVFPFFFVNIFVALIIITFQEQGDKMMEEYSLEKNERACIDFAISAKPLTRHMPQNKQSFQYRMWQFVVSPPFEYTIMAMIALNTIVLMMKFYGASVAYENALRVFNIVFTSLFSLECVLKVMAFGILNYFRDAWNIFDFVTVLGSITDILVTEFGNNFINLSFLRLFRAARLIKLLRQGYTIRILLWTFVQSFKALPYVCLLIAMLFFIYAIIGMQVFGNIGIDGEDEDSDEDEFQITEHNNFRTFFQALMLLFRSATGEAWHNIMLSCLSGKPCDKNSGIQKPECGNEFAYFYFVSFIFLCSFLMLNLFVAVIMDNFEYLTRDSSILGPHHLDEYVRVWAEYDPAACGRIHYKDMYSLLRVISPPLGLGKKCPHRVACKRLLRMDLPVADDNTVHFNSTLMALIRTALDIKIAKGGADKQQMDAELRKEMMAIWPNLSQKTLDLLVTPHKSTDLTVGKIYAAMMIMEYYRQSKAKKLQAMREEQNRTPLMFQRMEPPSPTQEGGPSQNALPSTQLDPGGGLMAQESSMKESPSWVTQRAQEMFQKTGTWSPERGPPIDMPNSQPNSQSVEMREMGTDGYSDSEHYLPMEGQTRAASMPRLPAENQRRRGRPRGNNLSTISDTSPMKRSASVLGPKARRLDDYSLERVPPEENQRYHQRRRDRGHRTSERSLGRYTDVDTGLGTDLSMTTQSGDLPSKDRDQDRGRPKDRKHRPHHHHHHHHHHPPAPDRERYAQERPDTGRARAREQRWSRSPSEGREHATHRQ

Nc1nc2c(ncn2COCCO)c(=O)[nH]1 [Acyclovir]
reduction of healing time / duration of cold sores [1]: up to ½

CC1=CCC[C@]2(C)CC[C@@H](C(C)(C)O)C[C@@H]12 [α-eudesmol]
inhibition of neurogenic inflammation [2]: potently inhibits
inhibition of P/Q-type Ca2+ channel [3]: potently inhibits

C=C1CCC[C@]2(C)CC[C@@H](C(C)(C)O)C[C@@H]12 [β-eudesmol]
inhibition of Na+,K+-ATPase activity [4]: most strongly
block of nicotinic ACh receptor channel [5]: blocked the nicotinic ACh receptor channel in both the open and closed conformations
desensitization of the nicotinic ACh receptor [5]: accelerated the desensitization
angiogenesis in subcutaneously implanted Matrigel plugs and in adjuvant-induced granuloma [6]: significantly inhibited
proliferation [7]: inhibited
HUVEC migration stimulated by bFGF [8]: inhibited
tube formation by HUVEC in Matrigel [8]: inhibited
proliferation ([8]; 50-100 microM): inhibited
neurite extension ([9]; 100 and 150 μM): significantly induced neurite extension
[3H]thymidine incorporation ([9]; at the highest concentration (150 μM)): suppression
phosphorylation of ERK ½ induced by bFGF or vascular endothelial growth factor [10]: blocked

santalol
decrease of TPA-induced ODC activity [11]: 70%
decrease of papilloma incidence [12]: 67%
decrease of papilloma multiplicity [12]: 96%
